Key:
T84 cells = experiment: Electrogenic Cl- secretion (short circuit current, Isc) in confluent T84 monolayers; type: cell-based, human; details: for Inhibition of cAMP and Ca++ elicited Cl- secretion: comparison of compounds tested
[1] = system: cAMP- and Ca++-sensitive basolateral K+ channels of T84 cells; experiment: Basolateral K+ conductance in T84 monolayers permeabilized apically with amphotericin B; type: cell-based, human; details: for Time course of K+ transport after treatment with forskolin and carbachol: forskolin 10 μM (cAMP agonist), carbachol 100 μM (Ca++ agonist)
Procedure: Selective mebrane Permeabilization and Measurement of Potassium Conductance of the Basolateral Membrane. The basolateral potassium conductance was measured using the technique developed by Dawson and co-workers. A potassium gradient (mucosal to serosal) was first established across the monolayer using asymmetric mucosal and serosal buffers containing K^+ as the sole permeant ion. The addition of amphotericin B (20 μM) to the mucosal reservoir forms conductive pores in the apical membrane, and thus removes all resistance to transepithelial potassium movement across this membrane. Thus, under the conditions of the experiment, in which the monolayer is short circuited (i.e., voltage-clamped at zero potential) and the transepithehal potassium gradient is constant, the amphotericin-dependent Isc becomes a measure of the rate of the transepithelial potassium flux across basolateral membranes. Changes in short circuit current (Isc), then represent changes in basolateral K^+ conductances (gK). Isc and K^+ conductances were measured using calomel electrodes, 3M KCI-agar bridges, and a voltage clamp (University of Iowa, Iowa City). To generate a voltage-current channel relationships, currents were elicited by 1 sec test potentials from −80 to +80 in 10 mV increments in the asymmetrical high K^+ gluconate solution. Calculation of basolateral membrane K^+ permeability: Membrane permeabilities were calculated according to the formula:
^pK=(cm/s)=^JK(mM/cm^2·s)/Δ[K^+](mM/cm^3)
where Δ [K^+] is equal to the difference in K^+ concentration (135 mM) between the asymmetric apical and basolateral bathing solutions. Maximal Isc values were converted into K^+ fluxes by dividing by the Faraday constant F (96,500 coulombs/mol) as previously described (Huflejt et al., J. Clin. Invest. 93: 1900-1910 (1994)).
Basolateral K+ transport was examined in T84 monolayers permeabilized apically by pretreatment with amphotericin B. Apical and basolateral buffers contained K+ as the sole permeant ion. All studies were performed with a 135 mM basolaterally directed K+ gradient. This method has been utilized previously to examine both Cl− and K+ transport in T84 cells and HT29-Cl0.16E cells. Briefly, ion conductances in the luminal or basolateral membranes of confluent T84 cell monolayers can be assessed separately by selectively permeabilizing the apical or basolateral membrane using the ionophore amphotericin B. This artificially removes all electrical resistance to ion transport across the plasma membrane containing pores formed by amphotericin B. As a result, the intact contralateral plasma membrane becomes rate limiting for transepithelial ion transport. Agonist-dependent changes in ion conductances can be assessed directly either as transepithelial short circuit current (Isc) in the presence of established ion gradients, or as transepithelial conductance (G) in the presence of established transepithelial potentials.

[2] = system: basolateral NaK2Cl cotransporters of T84 cells; experiment: Bumetanide-sensitive 86Rb uptake in T84 monolayers; type: cell-based, human
Procedure: Confluent monolayers on 5 cm^2 Transwell inserts were incubated for 30 minutes in HBSS at 37° C. […] Monolayers were cut from their inserts, placed into scintillation vials, and counted using standard methods.

rabbit colonic mucosa = experiment: Ussing chamber studies using rabbit colonic mucosa; details: 30 μM; forskolin 10 μM
Procedure: 4 male, New Zealand rabbits (2.5 kg) were anesthetized by an intravenous injection of pentobarbital (0.5 ml/kg). A 15 cm length of distal colon was removed and opened longitudinally. […] The volume of fluid on each side of the mucosa was 7 ml. Potential difference and Isc were monitored continuously and registered every 10 minutes.

[3] = system: cholera toxin-induced intestinal fluid secretion; type: in vivo, Balb/C mice
[4] = system: apical membrane Cl- channels of T84 cells; experiment: Apical Cl- conductance in T84 monolayers permeabilized basolaterally with amphotericin B; type: cell-based, human; details: forskolin 10 μM; symmetrical Cl- 142 mM
[5] = system: basolateral K+ channels of T84 cells; experiment: 86Rb efflux from T84 monolayers as indicator of basolateral K+ channel activity; type: cell-based, human
Procedure: J. Physiol (Cell Physiol. 28):[…]-[…] (1990). […] One ml samples were obtained and replaced from the basolateral reservoir. […] Finally, the cell monolayer was rinsed, cut with its support from the polystyrene ring, and the residual cell-associated radioactivity was determined. Monolayers were maintained at 37° C. in room air throughout the study. ^86Rb was counted by scintillation counting and normalized to percent total uptake as previously described ([…], et al, Am. J. Physiol. (Cell Physiol. 28):[…]-[…] (1990).

[6] = system: apical membrane Cl- channels of T84 cells; experiment: 125I efflux from T84 monolayers as indicator of apical Cl- channel activity; type: cell-based, human
Procedure: J. Physiol. (Cell Physiol. 28):[…]-[…] (1990). […] After washing twice in fresh HBSS, 0.5 ml samples were obtained every two min from the apical reservoir and replaced with fresh HBSS. […] Finally, the cell monolayer was rinsed, cut with its support from the polystyrene ring, and the residual cell-associated radioactivity was determined. Monolayers were maintained at 37° C. in room air throughout the study. ^125I was counted by gamma counting and normalized to percent total uptake as previously described ([…], et al, Am. J. Physiol. (Cell Physiol 28):[…]-[…] (1990).

[7] = 33 μM during final 30 min of preincubation

OC(c1ccccc1)(c1ccccc1)c1ccccc1Cl [2-chlorophenyl-bis-phenyl methanol]
Inhibition of cAMP and Ca++ elicited Cl- secretion (T84 cells): effective at inhibiting chloride secretion | Time course of K+ transport after treatment with forskolin and carbachol [1]: Nearly identical results

Clc1ccccc1C(c1ccccc1)(c1ccccc1)n1ccnc1 [clotrimazole]
Reduction of the total amount of 86Rb uptake ([2]; 33 μM for 30 min, VIP, mean±SEM, n=6): 53.6±5.8% | Effect on the fractional component of 86Rb uptake that was bumetanide-sensitive ([2]; 33 μM for 30 min, bumetanide 10 μM): no effect | Bumetanide-sensitive fraction of 86Rb uptake ([2]; 0.5 h, 33 µM): 88+3.2 % total uptake | Time course of forskolin induced Isc (rabbit colonic mucosa): inhibited strongly | Reduction of intestinal fluid secretion induced by cholera toxin ([3]; 5 hours): 86% | Intestinal secretion in the absence of cholera toxin ([3]; mouse, in vivo): no effect | Cl- secretory response (Isc as percentage of control) to the Ca++-dependent agonist carbachol (T84 cells): inhibited | Cl- secretory response (Isc as percentage of control) to the cAMP mediated agonist VIP (T84 cells): inhibited | Secretory response to agonists of sequential steps in the cAMP signalling cascade (T84 cells; 33 μM preincubation, 5 μM VIP, 10 μM forskolin or 3 mM 8Br-cAMP): inhibited | Cl- secretory response to Ca++-dependent agonists (T84 cells; 33 μM pretreatment, carbachol 100 μM, thapsigargin 5 μM or ionomycin 10 μM): inhibited strongly | IC50 (T84 cells; Homo sapiens, T84, read-out: IC50 for inhibiting the secretory response to E. Coli heat-stabile toxin): 15 µM | Reversibility of inhibition of Cl- secretion (T84 cells; after 60 min recovery in the presence of 0.01 mg/ml bovine serum albumin, n=4): 96±2% | Apparent potency of inhibition at a fixed time point by side of application (T84 cells; basolateral versus apical application): greater when applied basolaterally than apically | Inhibition of cAMP and Ca++ elicited Cl- secretion (T84 cells): most potent inhibitor tested | Potentiation of the Cl- secretory responses to either agonist at low doses (T84 cells; low doses (=10^-7 or less), VIP or carbachol): 5-10% | Forskolin- or thapsigargin-stimulated Cl- conductances [4]: no detectable effect | Time course of K+ transport after treatment with forskolin and carbachol [1]: significantly inhibited | 86Rb loading of the cells [5, 7]: did not alter | Reduction of the rate constant for VIP-stimulated 86Rb efflux ([5]; 33 μM, VIP 5 μM): 87% | Baseline and Ca++ stimulated 86RB efflux ([5]; T84 cells in the presence of VIP or thapsigargin, compared to cells not treated, FIG. 2): significantly inhibited | Rate constant for VIP-stimulated 86Rb efflux ([5]; monolayers treated with clotrimazole 33 μM, VIP 5 μM, n=2 in triplicate, untreated 0.0465): 0.0062 % uptake/minute | Rate constant for thapsigargin-stimulated 86Rb efflux ([5]; monolayers treated with clotrimazole 33 μM, thapsigargin 5 μM, n=2, untreated 0.048): 0.011 % uptake/minute | 125I loading of the cells [6, 7]: did not alter | Time course of 125I efflux from monolayers treated with VIP ([6]; 33 μM pretreatment, VIP): little or no effect | Rate constant for 125I efflux ([6]; monolayers treated with clotrimazole (33 μM), VIP, n=2 in duplicate, untreated 0.0645): 0.0637 % uptake/minute

Clc1ccc(COC(Cn2ccnc2)c2ccc(Cl)cc2Cl)c(Cl)c1 (centres unmarked) [miconazole]
Inhibition of cAMP and Ca++ elicited Cl- secretion (T84 cells): effective at inhibiting chloride secretion

CC(=O)N1CCN(c2ccc(OCC3COC(Cn4ccnc4)(c4ccc(Cl)cc4Cl)O3)cc2)CC1 (centres unmarked) [ketoconazole]
Inhibition of cAMP and Ca++ elicited Cl- secretion (T84 cells): effective at inhibiting chloride secretion

[Ba+2].[Cl-].[Cl-] [BaCl2]
Cl- secretory response (Isc as percentage of control) to the Ca++-dependent agonist carbachol (T84 cells): no apparent affect | Cl- secretory response (Isc as percentage of control) to the cAMP mediated agonist VIP (T84 cells): strongly inhibited | Effect on K+ transport induced by subsequent addition of carbachol ([1]; carbachol 100 μM, same monolayers, BaCl2 3 mM): no detectable effect | Inhibition of the cAMP-sensitive IK elicited by forskolin ([1]; forskolin 10 μM, BaCl2 3 mM in basolateral reservoirs): greater than 70%

Clc1ccc(COC(Cn2ccnc2)c2ccc(Cl)cc2Cl)cc1 (centres unmarked) [econazole]
Inhibition of cAMP and Ca++ elicited Cl- secretion (T84 cells): effective at inhibiting chloride secretion

charybdotoxin
Cl- secretory response (Isc as percentage of control) to the Ca++-dependent agonist carbachol (T84 cells): strongly inhibited | Cl- secretory response (Isc as percentage of control) to the cAMP mediated agonist VIP (T84 cells): minimal affects | Inhibition of the carbachol-induced Ca++ IK ([1]; carbachol first, pretreatment with charybdotoxin 100 nM): 50% | Effect on K+ transport induced by subsequent addition of forskolin ([1]; charybdotoxin 100 nM): no detectable effect
